We go through 17 compounds from patent US20250177467A1, “COMPOSITIONS AND METHODS FOR MODULATING NUCLEAR FACTOR OF ACTIVATED T-CELLS (NFAT) ACTIVITY OF T CELLS” (Yale University, priority 2022, published 2025).

The subject of experiment [1] is Lck, Fyn, Zap70, LAT and Pyk2. As to the kind of experiment: Western blot of protein phosphorylation of T cell receptor downstream cascades in Jurkat cells. The class given is cell-based. As to conditions: 45 min. The procedure: FIGS. 8A-8D are western blot analyses showing effects of YIV-906 (FIG. 8A), single herbs (FIG. 8A), the fractions of YIV-906 (FIG. 8B), P (FIG. 8C), and S (FIG. 8D) on protein phosphorylation of T cell receptor signaling cascades including, Lck, Fyn, Zap70, LAT and Pyk2. […] All eluted fractions were dried and reconstituted with water to equivalent concentration at 100 mg/ml. Jurkat cells were treated with YIV-906 (FIG. 8A), single herbs (FIG. 8A), the fractions of YIV-906 (FIG. 8B), P (FIG. 8C), and S (FIG. 8D) at equivalent dose 320 ug/ml for 45 min. Western blot analysis was used to determine the protein phosphorylation using specific antibodies. GAPDH was used to normalize the protein loading.
FIGS. 9A-9B show chemical identification of fractions of P (FIG. 9A) and S (FIG. 9B) after C18 column fractionation and their impacts on protein phosphorylation for Lck, Zap70, Lat, Fyn/Src, Pyk2. Equivalent concentration, 10 mg/ml, was used for LC-MS analysis. Equivalent concentration, 320 ug/ml for 45 min, was used for treating Jurkat cells for western blotting analysis. Identified chemicals (putative), based on their mass and mass of their fragments, were listed under each fraction. Non-identified chemical was not listed in this figure. Fraction could induce phosphorylation of specific protein was indicted as red upward arrow.
FIG. 10 show effects of S and P compounds on protein phosphorylation of T cell receptor signaling cascades including, Lck, Fyn, Zap70, LAT and Pyk2. Jurkat cells were treated with S and P compounds for 45 min. Western blot analysis was used to determine the protein phosphorylation using specific antibodies.
Jurkat-PD1 cells 10^6/ml were placed in 24 well plate treated with YIV-906 or its components herbs for 45 minutes. After spinning down the cells at 1000 g centrifugation for 10 min, red blood cells were lysed with 1 ml BD pharm lyse on ice. Cells were collected at 1000 g centrifugation for 10 min. 2×10^6 cells were used for each staining sample. The cells were prepared with 2X protein loading buffer (Tris pH 6.8 1M, SDS 1%, glycerol, B-mercaptoethanol, bromophenol blue, distilled water). The samples were then heated to 95° C. for 5 minutes to denature the proteins prior to western blot. SDS polyacrylamide gel electrophoresis (10% Mini-Protean TGX™ Precast Protein Gels, BioRad) was used to separate proteins according to their electrophoretic mobility. The protein extractions were deposited in the wells of the gel, 10 μL per well. The migration was performed in a 1X running buffer (Tris/Glycine/SDS) at 180 V for 50 minutes. The transfer of the proteins was performed on a PVDF membrane in the transfer buffer (Tris-CAPS AX, methanol, SDS 10%, distilled water) at 75 V for 1 hour. The non-specific binding sites on the PVDF membrane were blocked with a blocking solution (3% milk powder and 1X TBS-T) for 30 minutes. Then, the PVDF membrane was incubated with the primary antibody against the proteins of interest overnight at 4° C. The information of primary antibodies is as follows: P-Lck-Y394 (Biolegend, #933101), P-Zap70-Y319 (Cell signaling, #2717), P-LAT-Y191 (Cell signaling, #3584) P-SRC (Fyn) Y416 (Cell, signaling, #6943), P-Pyk2-Y402 (Cell signaling, 3291), GAPDH (Cell Signaling, #5174). […] Image-J was used to quantify the total intensity of immunoreactive bands. […]

The target of experiment [2] is T1, SHP2 (Homo sapiens, UniProt Q06124).
T1 sequence (Q06124 1-593): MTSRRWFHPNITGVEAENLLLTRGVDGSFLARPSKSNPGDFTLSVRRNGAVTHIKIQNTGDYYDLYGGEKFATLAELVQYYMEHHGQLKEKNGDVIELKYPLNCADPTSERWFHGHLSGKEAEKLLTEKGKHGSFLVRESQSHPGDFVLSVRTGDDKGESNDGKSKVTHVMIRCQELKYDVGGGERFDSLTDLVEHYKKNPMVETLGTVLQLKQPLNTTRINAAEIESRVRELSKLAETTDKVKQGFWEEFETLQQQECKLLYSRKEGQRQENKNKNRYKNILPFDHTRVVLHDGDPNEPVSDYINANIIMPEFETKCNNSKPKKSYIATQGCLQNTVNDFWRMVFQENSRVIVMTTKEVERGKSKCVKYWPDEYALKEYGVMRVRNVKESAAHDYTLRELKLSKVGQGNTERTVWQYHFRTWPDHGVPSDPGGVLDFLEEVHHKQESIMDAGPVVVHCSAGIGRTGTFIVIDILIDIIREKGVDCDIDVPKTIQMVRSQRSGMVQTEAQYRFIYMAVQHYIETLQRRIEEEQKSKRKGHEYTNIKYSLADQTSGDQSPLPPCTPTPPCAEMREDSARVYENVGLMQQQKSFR
The experiment can be described thus: SHP2 activity, p-Nitrophenyl Phosphate (pNPP) colorimetric assay. The class given is biochemical. As to conditions: 40 uM.

The test system of experiment [3] is NFAT mediated transcriptional activity of Jurkat cells. The experiment can be described thus: NFAT luciferase reporter in Jurkat(-PD1) cells co-cultured with wild type Raji or Raji-PD-L1 cells without or with SEE. The class given is cell-based. The conditions noted are these: for modulation effect on basal NFAT activity: absence of SEE, wild type Raji or PD-L1 over-expressed Raji cells; for inhibition on NFAT activity of Jurkat cells: presence of SEE; for modulation of basal NFAT activity: S compounds up to 40 uM; for inhibition of SEE triggered NFAT activity: at 20 to 40 uM, SEE 10 ng/ml.

The subject of experiment [4] is NFAT mediated transcriptional activity of Jurkat-PD1 TCRαβ knockout cells. The experiment can be described thus: NFAT luciferase reporter in TCRαβ knockout Jurkat-PD1 cells. The class given is cell-based.
Experiment [5] deals with CD19 naturally expressed on the cell surface of Raji cells (UniProt P15391). As to the kind of experiment: cell-based or functional assay.
The mark [6] stands for this setting: Jurkat-PD1 with wild type Raji or PD-L1 over-expressed Raji cells, without SEE.

CD19 naturally expressed on the cell surface of Raji cells, sequence (P15391 20-556 limits assumed): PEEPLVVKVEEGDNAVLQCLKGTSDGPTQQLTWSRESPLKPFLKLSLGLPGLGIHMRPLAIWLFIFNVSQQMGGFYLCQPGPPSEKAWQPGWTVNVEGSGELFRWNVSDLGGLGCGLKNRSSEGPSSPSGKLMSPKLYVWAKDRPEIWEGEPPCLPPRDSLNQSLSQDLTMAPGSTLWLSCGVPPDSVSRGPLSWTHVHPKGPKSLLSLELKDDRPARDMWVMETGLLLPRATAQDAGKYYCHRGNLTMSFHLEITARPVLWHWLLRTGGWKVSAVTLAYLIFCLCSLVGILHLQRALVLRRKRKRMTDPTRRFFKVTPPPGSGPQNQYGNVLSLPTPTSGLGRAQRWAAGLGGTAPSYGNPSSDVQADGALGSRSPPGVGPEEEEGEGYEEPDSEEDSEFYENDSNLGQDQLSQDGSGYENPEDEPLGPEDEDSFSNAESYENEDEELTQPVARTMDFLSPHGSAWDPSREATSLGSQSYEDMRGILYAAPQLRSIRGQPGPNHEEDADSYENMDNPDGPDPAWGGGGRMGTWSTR

On to `C[C@]12C[C@@H](O)[C@@H]3C[C@@]1(O[C@@H]1O[C@H](CO)[C@@H](O)[C@H](O)[C@H]1O)[C@@]3(COC(=O)c1ccccc1)C(=O)O2` [Albiforin], for which, in experiment [1], the “inducing P-Zap70-Y319 and P-Pyk2-Y402” value was “some effect”.

Turning to `O=C(O)[C@H]1O[C@@H](Oc2cc3oc(-c4ccccc4)cc(=O)c3c(O)c2O)[C@H](O)[C@@H](O)[C@@H]1O` [Baicalin], the “induction effect on P-Zap70-Y319, P-SRC (Fyn)-Y416 and P-Pyk2-Y402” value in experiment [1] (40 uM) is “some induction effect”. Also, the “inhibitory effect on SHP2, S compounds” value in experiment [2] was “showed inhibitory effect on SHP2”.

`CC1(C)[C@@H](O[C@H]2O[C@H](C(=O)O)[C@@H](O)[C@H](O)[C@H]2O[C@@H]2O[C@H](C(=O)O)[C@@H](O)[C@H](O)[C@H]2O)CC[C@]2(C)[C@H]3C(=O)C=C4[C@@H]5C[C@@](C)(C(=O)O)CC[C@]5(C)CC[C@@]4(C)[C@]3(C)CC[C@@H]12` [Glycyrrhizic acid]: the “inhibitory effect on SHP2, G compounds” value in experiment [2] is listed as “relatively higher inhibitory effects on SHP2 than other G compounds”.

Consider `O=C(/C=C/c1ccc(O)cc1)c1ccc(O)cc1O` [Isoliquiritigenin], for which the “modulation effect on basal NFAT activity” value in experiment [3] (10 uM) is on record as “some modulation effect”. The “inhibition on NFAT activity of Jurkat cells” value (shortened to “inhibition on NFAT activity”) in experiment [3] (40 uM) is “showed inhibition on NFAT activity”.

Turning to `COc1ccc2c(c1O)-c1c(O)c(OC)cc3c1[C@H](C2)[N+](C)(C)CC3` [Magnoflorine], in experiment [3] (Z compound up to 40 uM), the “inhibition on NFAT activity” value is recorded as “showed inhibition on NFAT activity”.

Consider `C[C@@]12C[C@@]3(O)O[C@@H](O1)[C@]1(COC(=O)c4ccccc4)[C@H]3C[C@@]12O[C@@H]1O[C@H](CO)[C@@H](O)[C@H](O)[C@H]1O` [Paeoniforin], for which the “inducing P-Zap70-Y319 and P-Pyk2-Y402” value in experiment [1] was “some effect”.

Consider `O=c1cc(-c2ccccc2)oc2cc(O)c(O)c(O)c12` [baicalein], for which the “impact on NFAT activity, Jurkat-PD1 versus Jurkat-PD1 TCRαβ KO cells” value in experiment [4] is “very similar impact on NFAT activity”. Also, the “induction of protein phosphorylation of all examined proteins (Lck, Zap70, LAT, Fyn, Pyk2)” value in experiment [1] (40 uM) was “could strongly induce protein phosphorylation of all examined proteins”. For the same compound, the “modulation of basal NFAT activity” value in experiment [3] (setting [6]) is on record as “could modulate the basal NFAT activity”. Also, the “inhibition of SEE triggered NFAT activity” value in experiment [3] is on record as “could inhibit SEE triggered NFAT activity”. In experiment [2], the “inhibitory effect on SHP2, S compounds” value is listed as “showed inhibitory effect on SHP2”.

`COc1c(CC=C(C)C)c(O)cc2oc(=O)c(-c3ccc(O)cc3O)cc12` [glycycoumarin]: in experiment [3] (10 uM), the “modulation effect on basal NFAT activity” value is on record as “some modulation effect”.

For `CC1(C)[C@@H](O)CC[C@]2(C)[C@H]3C(=O)C=C4[C@@H]5C[C@@](C)(C(=O)O)CC[C@]5(C)CC[C@@]4(C)[C@]3(C)CC[C@@H]12` [glycyrrhetinic acid], the “inhibitory effect on SHP2, G compounds” value in experiment [2] was “relatively higher inhibitory effects on SHP2 than other G compounds”.

As for `C=CC(C)(C)c1cc(/C=C/C(=O)c2ccc(O)cc2)c(OC)cc1O` [licochalcone A], the “inhibition on NFAT activity” value in experiment [3] (40 uM) was “showed inhibition on NFAT activity”. The “modulation effect on basal NFAT activity” value in experiment [3] (10-20 uM) is listed as “some modulation effect”.

As to `O=C1C[C@@H](c2ccc(O)cc2)Oc2cc(O)ccc21` [liquiritigenin], the “modulation effect on basal NFAT activity” value in experiment [3] (40 uM) is “some modulation effect”.

Take `O=C1C[C@@H](c2ccc(O[C@@H]3O[C@H](CO)[C@@H](O)[C@H](O)[C@H]3O)cc2)Oc2cc(O)ccc21` [liquiritin]: the “modulation effect on basal NFAT activity” value in experiment [3] (20 uM) is “some modulation effect”.

Consider `COc1c(O[C@@H]2O[C@H](C(=O)O)[C@@H](O)[C@H](O)[C@H]2O)cc2oc(-c3ccccc3)cc(=O)c2c1O` [oroxylin A 7-O-beta-D-glucuronide], for which, in experiment [4], the “impact on NFAT activity, Jurkat-PD1 versus Jurkat-PD1 TCRαβ KO cells” value is given as “very similar impact on NFAT activity”. Moreover, the “induction effect on P-Zap70-Y319, P-SRC (Fyn)-Y416 and P-Pyk2-Y402” value in experiment [1] (40 uM) is recorded as “some induction effect”. Further, the “modulation of basal NFAT activity” value in experiment [3] (setting [6]) is recorded as “could modulate the basal NFAT activity”. Further, the “dose required to achieve 2-fold activity of NFAT” value in experiment [3] (basal, without SEE, Jurkat-PD1 with wild type Raji or PD-L1 over-expressed Raji cells) came to 40 µM. The “inhibitory effect on SHP2, S compounds” value in experiment [2] is listed as “showed inhibitory effect on SHP2”.

Regarding `COc1c(O)cc2oc(-c3ccccc3)cc(=O)c2c1O` [oroxylin A], in experiment [4], the “impact on NFAT activity, Jurkat-PD1 versus Jurkat-PD1 TCRαβ KO cells” value is “very similar impact on NFAT activity”. The “modulation of basal NFAT activity” value in experiment [3] (setting [6]) is on record as “could modulate the basal NFAT activity”. In experiment [3], the “inhibition of SEE triggered NFAT activity” value was “could inhibit SEE triggered NFAT activity”. Further, the “inhibitory effect on SHP2, S compounds” value in experiment [2] was “showed inhibitory effect on SHP2”.

Turning to `COc1c(O[C@@H]2O[C@H](C(=O)O)[C@@H](O)[C@H](O)[C@H]2O)cc(O)c2c(=O)cc(-c3ccccc3)oc12` [wogonoside], in experiment [2], the “inhibitory effect on SHP2, S compounds” value is “showed inhibitory effect on SHP2”.

As to “Anti-PD1: antibody produced from Nivolumab clone; InVivoSIM anti-human PD-1 (Nivolumab Biosimilar)”, the “rescue of depressed NFAT activity (due to the interaction of PD1 and PD-L1) in Jurkat-PD1 cells” value in experiment [3] (Raji-PD-L1 cells, SEE 10 ng/ml or 30 ng/ml, YIV-906 160 ug/ml, nivolumab biosimilar 18 ug/ml) is listed as “rescued the depressed NFAT activity”.

In experiment [5], “chimeric antigen receptor (CAR-CD19-CD3zeta) on Jurkat-PD1 NFAT-luc cells” yielded an NFAT activity of Jurkat-PD1 CAR-CD19 cells co-cultured with Raji (NFAT luciferase reporter) of 40 fold.
